Experimental data taken from patent US9079891B2, “Compounds that modulate intracellular calcium” (CALCIMEDICA, INC., priority 2010, dated 2015).
Like-named read-outs stand apart in the source and are kept apart here.

What was measured:
RBL-2H3 cells = test: Fluorescence-based assay of store-operated calcium entry in RBL-2H3 cells (FLIPR, thapsigargin); type: cell-based, rat; conditions: Fluo-4, Upslope 0-7 sec, read-out: FLIPR_CRAC: 9 pt CRC - Fluo4_TG-D: RBL-2H3: IC50: Upslope 0-7 sec
Protocol: B. Fluorescence-Based Assay of Store-Operated Calcium Entry in RBL-2H3 Cells.
RBL-2H3 cells are obtained from ATCC and maintained in complete medium with 10% FBS at 37° C./6% CO2.
The day prior to performing the assay, RBL-2H3 cells are plated in 50 μl of complete medium in a 384 well plate. Cells are grown at 37° C./6% CO2 overnight and grow to 50-60% confluence by the next day. On the assay day, 1.5 μM Fluo-4-AM dye (Invitrogen) in complete medium is added and incubated for 1 hour at RT. Cells are washed twice in Ca^2+-free HBSS buffer and 35 μl Ca^2+-free HBSS buffer is added to each well. 10 μl of a test compound prepared in a Ca^2+-free HBSS solution at 4.5× of the desired concentration is added to a well and incubated for 5 minutes at RT. 10 μl of thapsigargin prepared in a Ca^2+-free HBSS solution at 5.5× of the desired concentration (5.5 uM) is added to each well and incubated for an additional 25 minutes. The initial baseline fluorescence signal is measured with a FLIPR^384 (Molecular Devices) plate reader. 5 μl of 12× calcium in HBSS (12 mM) is added and changes in cellular fluorescence are measured with the FLIPR^384 plate reader. In each well, the change in the fluorescent signal as a function of time due to calcium entry into the cell is determined by calculating the difference between the fluorescent signal measured 7 seconds after calcium addition and the initial baseline fluorescence signal at time zero (t=0). This parameter is designated Upslope. The IC50 value is calculated as the concentration at which 50% of the Upslope is inhibited.

[1] = system: secreted IL-2 in Jurkat T cells; test: In vitro assay of cytokine (IL-2) release from T cells; type: cell-based; conditions: Homo sapiens; Jurkat E6-1 cells; PHA/TPA stimulation 20 hours; IL-2 ELISA
Protocol: In Vitro Assay of Cytokine Release from T Cells
Jurkat E6-1 cells are obtained from ATCC and maintained in complete medium with 10% FBS at 37° C./6% CO2.
The day prior to performing the assay, Jurkat T cells are plated in 90 μL of HBSS Buffer with 1.8 mM CaCl2 and 1.75% fetal bovine serum (FBS) in a 96 well plate at a density of 1.5×10^5 cells/well for 3 hours. 10 μl of 10× test compound prepared in HBSS is added and incubated for 10 minutes at 37° C./6% CO2. Cells are stimulated by the addition of 10 μl of 11×PHA/TPA (27.5 μg/mL PHA/880 nM TPA) and incubated at 37° C./6% CO2 for 20 hours. On the following day, the supernatants are collected and assayed for IL-2 levels by ELISA according to the manufacturer's protocols. The IC50 value is calculated as the concentration at which 50% of secreted IL-2 in vehicle treated cells is inhibited.

[2] = target: T1, recombinant human STIM1 and Orai1 (Homo sapiens, UniProt Q96D31); test: Fluorescence-based assay of store-operated calcium entry in Orai1/STIM1 stable cells (FLIPR); type: cell-based; conditions: for IC50: HEK-293 cells stably expressing human Orai1/STIM1, Fluo-4, Peak-Basal signal, read-out: FLIPR_CRAC: 9 point CRC: O1S1_JR251: IC50: Peak_over_Basal
T1 construct: c-myc (C); expressed in transfected cells; host or cells: HEK-293 cells stably expressing human STIM1 and human Orai1
Protocol: A. Fluorescence-Based Assay of Store-Operated Calcium Entry in Orai1/Stim1 Stable Cells.
Cells stably expressing recombinant human STIM1 and Orai1 are generated by transfecting a human Orai1 expression plasmid (pcDNA3.1-Orai1-cmyc) into HEK-293 cells stably overexpressing human STIM1 (Roos et al. 2005 JCB 169(3): 435-445). Colonies of cells stably expressing both STIM1 and Orai1 proteins are selected and then subcloned by limiting dilution. Cells were cultured at 37° C./6% CO2 in complete medium with 10% FBS and appropriate selection markers.
The day prior to performing the assay Orai1/STIM1 stable cells are plated in 50 μL of complete medium at 90-95% confluence in a 384 well plate. Cells are grown at 37° C./6% CO2 overnight. On the day of the assay, 1.5 μM fluo-4-AM (Invitrogen) in complete medium is added to the cells, which are then incubated for 1 hour at RT. Cells are washed once in Ca^2+-free HBSS (Hank's buffered saline solution) and 35 μl of Ca^2+-free HBSS is added to each well. Test compounds are added to wells in a 10 μL Ca^2+-free HBSS solution, prepared at 4.5× the desired final concentration, and incubated for 30 minutes at RT. The initial baseline fluorescence signal is then measured with a FLIPR^384 (Molecular Devices) plate reader. Calcium entry is initiated by adding 5 μl of 10×CaCl2 (10 mM) in HBSS, and changes in cellular fluorescence are measured with the FLIPR^384 plate reader. In each well, the magnitude of the fluorescence signal as a result of calcium entry into the cell is determined by calculating the difference between the peak fluorescence signal measured after calcium addition and the initial baseline fluorescence signal (designated Peak-Basal). IC50 values are typically calculated as the concentration that inhibited 50% of the Peak-Basal signal.

T1 sequence (Q96D31 whole entry): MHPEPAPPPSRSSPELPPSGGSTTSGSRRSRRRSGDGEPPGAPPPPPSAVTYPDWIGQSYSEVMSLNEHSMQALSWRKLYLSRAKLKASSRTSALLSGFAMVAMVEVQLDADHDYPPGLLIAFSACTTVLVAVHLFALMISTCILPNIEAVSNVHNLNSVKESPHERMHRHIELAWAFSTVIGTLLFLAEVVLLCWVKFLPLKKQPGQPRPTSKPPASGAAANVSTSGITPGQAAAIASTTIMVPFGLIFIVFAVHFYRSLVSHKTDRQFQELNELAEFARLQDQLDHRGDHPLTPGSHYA

Molecule | IC50 (RBL-2H3 cells; Rattus norvegicus) [nM] | IC50 [1] [nM] | IC50 [2] [nM] | FLIPR_CRAC: 9 point CRC: O1S1_JR251: efficacy ([2]; printed in the IC50 column in place of a class symbol) [% efficacy] | IC50 (RBL-2H3 cells) [nM]
Cc1nc2cc(Cl)c(-c3ccc(C(=O)Nc4ccccc4Cl)s3)cc2o1 [Example 1, [5-(5-chloro-2-methylbenzoxazol-6-yl)(2-thienyl)]-N-(2-chlorophenyl)carboxamide] | < 600 | < 50 | < 600 | – | –
Cc1nc2cc(Cl)c(-c3ccc(C(=O)Nc4ccccc4F)s3)cc2o1 [Example 2, [5-(5-chloro-2-methylbenzoxazol-6-yl)(2-thienyl)]-N-(2-fluorophenyl)carboxamide] | < 600 | < 50 | < 600 | – | –
Cc1nc2cc(Cl)c(-c3ccc(C(=O)Nc4c(F)cccc4F)s3)cc2o1 [Example 3, [5-(5-chloro-2-methylbenzoxazol-6-yl)(2-thienyl)]-N-(2,6-difluorophenyl)carboxamide] | < 600 | < 50 | < 600 | – | –
Cc1cc2scnc2cc1-c1ccc(C(=O)Nc2c(F)cccc2F)s1 [Example 4, N-(2,6-difluorophenyl)[5-(6-methylbenzothiazol-5-yl)(2-thienyl)]carboxamide] | < 600 | < 50 | < 600 | – | –
Cc1cc2scnc2cc1-c1ccc(C(=O)Nc2ccccc2F)s1 [Example 5, N-(2-fluorophenyl)[5-(6-methylbenzothiazol-5-yl)(2-thienyl)]carboxamide] | < 600 | < 50 | < 600 | – | –
Cc1cc2scnc2cc1-c1ccc(C(=O)Nc2ccccc2Cl)s1 [Example 6, N-(2-chlorophenyl)[5-(6-methylbenzothiazol-5-yl)(2-thienyl)]carboxamide] | < 600 | < 50 | < 600 | – | –
O=C(Nc1c(F)cccc1F)c1ccc(-c2cc3scnc3cc2Cl)s1 [Example 7, N-(2,6-difluorophenyl)[5-(5-chlorobenzothiazol-6-yl)(2-thienyl)]carboxamide] | < 600 | < 50 | < 600 | – | –
O=C(Nc1ccccc1F)c1ccc(-c2cc3scnc3cc2Cl)s1 [Example 9, [5-(5-chlorobenzothiazol-6-yl)(2-thienyl)]-N-(2-fluorophenyl)carboxamide] | < 600 | < 50 | < 600 | – | –
Cc1cc2c(C)noc2cc1-c1ccc(C(=O)Nc2c(F)cccc2F)s1 [Example 10, N-(2,6-difluorophenyl)[5-(3,5-dimethylbenzo[d]isoxazol-6-yl)(2-thienyl)]carboxamide] | < 600 | < 50 | < 600 | – | –
Cc1cc2c(C)noc2cc1-c1ccc(C(=O)Nc2ccccc2F)s1 [Example 11, [5-(3,5-dimethylbenzo[d]isoxazol-6-yl)(2-thienyl)]-N-(2-fluorophenyl)carboxamide] | < 600 | < 50 | < 600 | – | –
Cc1cc2cn(C)nc2cc1-c1ccc(C(=O)Nc2ccccc2F)s1 [Example 13] | < 600 | < 50 | < 600 | – | –
Cc1nc2cc(Cl)c(-c3cnc(NC(=O)c4ccccc4Cl)s3)cc2o1 [Example 19, N-[5-(5-chloro-2-methybenzoxazol-6-yl)(1,3-thiazol-2-yl)](2-chlorophenyl)carboxamide] | < 600 | 50 to 100 | < 600 | – | –
Cc1cc2scnc2cc1-c1cnc(NC(=O)c2c(F)cccc2F)s1 [Example 20] | < 600 | < 50 | 600 to 1200 | – | –
CCn1nc(C(F)(F)F)cc1-c1cnc(NC(=O)c2ccccc2Cl)s1 [Example 24, (2-chlorophenyl)-N-{5-[1-ethyl-3-(trifluoromethyl)pyrazol-5-yl](1,3-thiazol-2-yl)}carboxamide] | < 600 | < 50 | 600 to 1200 | – | –
Cn1nc(C(F)(F)F)cc1-c1cnc(NC(=O)c2ccccc2Cl)s1 [Example 27, (2-chlorophenyl)-N-{5-[1-methyl-3-(trifluoromethyl)pyrazol-5-yl](1,3-thiazol-2-yl)}carboxamide] | < 600 | < 50 | < 600 | – | –
Cn1nc(C(F)(F)F)cc1-c1ccc(NC(=O)c2ccccc2F)s1 [Example 71, (2-fluorophenyl)-N-{5-[1-methyl-3-(trifluoromethyl)pyrazol-5-yl](2-thienyl)}carboxamide] | < 600 | – | < 600 | – | –
Cn1nc(C(F)(F)F)cc1-c1cnc(NC(=O)c2ccc(Cl)cc2)s1 [Example 73] | 600 to 1200 | – | 600 to 1200 | – | –
Cn1nc(C(F)(F)F)cc1-c1ccc(NC(=O)c2ccncc2F)s1 [Example 75, (3-fluoro(4-pyridyl))-N-{5-[1-methyl-3-(trifluoromethyl)pyrazol-5-yl](2-thienyl)}carboxamide] | > 1200 | – | – | <50 | –
Cn1nc(C(F)(F)F)cc1-c1cnc(NC(=O)c2ccncc2F)s1 [Example 76] | < 600 | – | < 600 | – | –
Cn1nc(C(F)(F)F)cc1-c1ccc(NC(=O)c2c(F)cncc2F)s1 [Example 77, (3,5-difluoro(4-pyridyl))-N-{5-[1-methyl-3-(trifluoromethyl)pyrazol-5-yl](2-thienyl)}carboxamide] | < 600 | – | 600 to 1200 | – | –
Cn1nc(C(F)(F)F)cc1-c1cnc(NC(=O)c2c(F)cncc2F)s1 [Example 78] | 600 to 1200 | – | > 1200 | – | –
Cc1cc2c(cc1-c1ccc(NC(=O)c3ccccc3F)s1)OC(F)(F)O2 [Example 79, N-[5-(2,2-difluoro-6-methylbenzo[d]1,3-dioxolen-5-yl)(2-thienyl)](2-fluorophenyl)carboxamide] | 600 to 1200 | – | > 1200 | – | –
Cc1cc2c(cc1-c1ccc(NC(=O)c3c(F)cccc3F)s1)OC(F)(F)O2 [Example 80, N-[5-(2,2-difluoro-6-methylbenzo[d]1,3-dioxolen-5-yl)(2-thienyl)](2,6-difluorophenyl)carboxamide] | < 600 | – | > 1200 | – | –
Cc1cc2c(cc1-c1cnc(NC(=O)c3c(F)cncc3F)s1)OC(F)(F)O2 [Example 81, (3,5-difluoro(4-pyridyl))-N-[5-(2,2-difluoro-6-methylbenzo[d]1,3-dioxolen-5-yl)(1,3-thiazol-2-yl)]carboxamide] | < 600 | – | > 1200 | – | –
(2,6-difluorophenyl-N-{5-[2-(fluorophenyl)-1-methylpyrazol-5-yl](1,3-thiazol-2-yl)]carboxamide [Example 69] | – | – | 600 to 1200 | – | < 600
